Test results: patent publication US8969296B2, “TGFP-CAP peptide and its uses” (Caregen Co., Ltd, priority 2007, dated 2015)
Where a SMILES comes first, the peptide text is derived from it.

Assays:
[1] = tested on: TRP-1 (tyrosinase related protein-1) and TRP-2; test: Levels of TRP-1 and TRP-2 in melanoma cells (Western blotting); format: cell-based; settings: 10 μM PD98059; with 10 ng/ml TGF-β1 or 30 μg/ml tridecapeptide
ERK 1/2 = test: Western blotting of Phospho ERK 1/2 in melanoma cells; format: cell-based; settings: 10 μM PD98059; with 10 ng/ml TGF-β1 or 30 μg/ml tridecapeptide
Procedure: Furthermore, to clearly verify the influence of TGF-β1 and tridecapeptide on signaling events, melanoma cells were cultured as described above and then incubated simultaneously with 10 μM PD98059 and 30 μg/ml tridecapeptide. Proteins from cell extracts were prepared and developed on SDS-PAGE, followed by electro-transferring to PVDF (polyvinylidene difluoride) membrane (GE Health Care). Afterwards, the PVDF membrane was incubated with Phospho ERK 1/2 antibodies (1/3000 diluted, Cell Signaling, USA) for 4 hr at room temperature. The PVDF membrane was washed with a washing buffer and incubated with HRP-conjugated anti-mouse IgG antibodies (1/5000 diluted, SantaCruz, USA). Then, it was washed twice with a washing buffer and incubated with ECL (enhanced chemilumineseance) solution (GE Health Care) (FIG. 6). In FIG. 6, among PD98059 treatment groups, the symbol “Con” is a group incubated with only 10 μM PD98059 and “TGFb1” is a group incubated with both 10 μM PD98059 and 10 ng/ml TGF-β1.

B16F10 cells = test: Melanosome formation under ERK inhibition by PD98059 (microscopy); format: cell-based; settings: 10 μM PD98059; with 1 ng/ml transforming growth factor or 30 μg/ml tridecapeptide; 4 days
Procedure: To reveal skin whitening effects of the tridecapeptide synthesized in Example 1 and transforming growth factor, the activation of ERK was inhibited with PD98059 (Sigma) and then its inhibitory influence was evaluated after peptide treatment. B16F10 cells were seeded in 6-well culture dishes in a density of 1×10^5 cells/well and cultured in DMEM for 3 days at 37° C. under 5% CO2 conditions. After cell adhesion was observed, medium was changed with a fresh medium containing 2% serum. The negative control was not subject to any treatment. Cells plated in other two culture dishes were incubated with either 1 ng/ml transforming growth factor or 30 μg/ml tridecapeptide. In addition, cells cultured in other three dishes as a positive control were incubated with 10 μM PD98059 to inhibit ERK phosphorylation. Among them, cells contained in two dishes were incubated for 4 days with either 1 ng/ml transforming growth factor or 30 μg/ml tridecapeptide after 1-hr PD98059 treatment and their morphology was observed under microscopes.

HaCaT = test: Cytotoxicity test, SRB colorimetric assay, keratinocytes; format: cell-based; settings: 500 pg/ml-200 μg/ml, 72 hr
Procedure: (§1) To verify cytotoxicity of peptides of this invention on keratinocytes, fibroblasts and melanoma cells, SRB (Sulforhodamine B) colorimetric assay was carried out using HaCaT, NIH3T3 and B16F10 cells according to Rizzino et al method (Rizzino, et al. Cancer Res., 48:4266 (1988)). HaCaT, NIH3T3 or B16F10 cells (Korean Cell Line Bank) were cultured in 250 ml-flasks containing EMEM (Eagle's minimal essential media, Gibco, U.S.A.) supplemented with […] (fetal bovine serum). Cells cultured were treated with 0.25% trypsin solution to detach cells from the bottom of culture flasks and centrifuged to collect cell pellets. Cells were resuspended in EMEM not containing FBS, its aliquot (1×10^5) cells was added to each well of 96-well plates and cultured under 7% CO2 for 24 hr at 37° C. After 24-hr culture, the medium was changed with a fresh medium not containing serum and cells were incubated with the tridecapeptide (500 pg/ml, 10 ng/ml, 1 μg/ml, 100 μg/ml and 200 μg/ml) dissolved in 10% DMSO for 72 hr under the same conditions as described above. After removing supernatants, cells were washed once using PBS and incubated with SRB solution (Sigma). Cells were washed with PBS and observed under a microscope to find cell viability. In addition, absorbance at 590 nm was measured to analyze cell proliferation.

NIH3T3 = test: Cytotoxicity test, SRB colorimetric assay, fibroblasts; format: cell-based; settings: 500 pg/ml-200 μg/ml, 72 hr
Procedure: as §1

B16F10 = test: Cytotoxicity test, SRB colorimetric assay, melanoma cells; format: cell-based; settings: 500 pg/ml-200 μg/ml, 72 hr
Procedure: as §1

NIH-3T3 cells = test: Stability analysis: remaining activity of solutions stored at 37° C., by MTT assay; format: physicochemical; settings: 50 mM Tris-HCl (pH 8.0), days 0-100, tridecapeptide 10 μg/ml, TGF-β1 1 μg/ml
Procedure: To evaluate stability of the purified tridecapeptide, NH2-Ile-Trp-Ser-Leu-Asp-Thr-Gln-Tyr-Gly-Gly-Arg-Gly-Asp-OH, it was dissolved in 50 mM Tris-HCl (pH 8.0) to a concentration of 10 μg/ml. A recombinant TGF-β1 (Sigma) produced by E. coli was prepared as a control in the same buffer to a concentration of 1 μg/ml. The prepared solutions were introduced into glass vials and kept to stand at 37° C. Afterwards, the solutions were taken on days 0, 1, 10, 25, 50, 75 and 100 and subjected to a MTT assay (Scudiero, D. A., et al. Cancer Res. 48:4827-4833 (1988)) using NIH-3T3 cells (Korean Cell Line Bank) for determining their remaining activity (FIG. 2). The results were given as relative values to the activity (100%) of sample taken on day 0.

tyrosinase = test: Tyrosinase activity in extracts of treated B16F10 cells (L-DOPA, absorbance 405 nm); format: cell-based; settings: α-MSH 200 ng/ml, TGFβ-1 10 ng/ml or peptide 10 ng/ml-30 μg/ml, 4 days
Procedure: The tridecapeptide synthesized in Example 1 was analyzed to decrease levels of melanin pigment. B16F10 cells (Korean Cell Line Bank) were plated in a density of 1×10^5 cells/well and cultured in DMEM (Sigma) for 3 days at 37° C. under 5% CO2 conditions. After cell adhesion was observed, medium was changed with a fresh medium containing 2% serum. Cells were incubated with tested materials in determined concentrations for 4 days at 37° C. under 5% CO2 conditions. The tested materials were prepared in such a manner that components indicated in Table 6 were dissolved in medium and diluted with a mixed solvent of propylene glycol:ethanol:distilled water (5:3:2).
Afterwards, cells were harvested and treated with a lysis buffer containing sodiumdodecylsulfate (Sigma) and Triton X-100 (Sigma) to extract intracellular proteins. The extracted proteins were quantitated by the BCA method. For each experiment group, 90 μl of protein solution and 10 μl of L-DOPA (Sigma) were added and reacted for 30 min. The resultants were analyzed to measure their absorbance values at 405 nm for evaluating tyrosinase activities.

Mice melanocytes = test: Inhibition of melanin generation induced by α-MSH (Dooley method); format: cell-based; settings: α-MSH 200 ng/ml; peptide 10 ng/ml-30 μg/ml; 3 days; absorbance 400 nm
Procedure: The tridecapeptide synthesized in Example 1 was analyzed to decrease levels of melanin pigment. Mice melanocytes cultured were incubated with α-MSH (melanocyte stimulating hormone/Sigma) and then with the tridecapeptide in the determined concentrations to measure inhibition effects on melanin generation. Mice melanocytes were originated from C57BL/6 mice and cultured in DMEM (Dulbecco's modified Eagle's media) containing 10% fetal bovine serum at 37° C. under 5% CO2 conditions. Cells were cultured in a density of 1×10^5 cells/well and their adhesion to culture plates was observed. Then, cells were incubated with materials to be tested for 3 days. The tested materials were prepared in such a manner that components indicated in Table 5 were dissolved in medium and diluted with a mixed solvent of propylene glycol:ethanol:distilled water (5:3:2). Following removal of medium, cells were washed with PBS and treated with 1 N sodium hydroxide. The resultants were analyzed to measure their absorbance values at 400 nm.

Molecule | levels of TRP-1 and TRP-2 [1] | levels of Phospho ERK 1 and ERK 2 (ERK 1/2) | melanosome number (B16F10 cells) | cell number (cytotoxicity) (HaCaT) | cell number (cytotoxicity) (NIH3T3) | cell number (cytotoxicity) (B16F10) | remaining activity over time (relative to day 0 = 100%) (NIH-3T3 cells) | tyrosinase activity (tyrosinase) | melanin generation / melanin content (Mice melanocytes)
COc1cccc(-c2cc(=O)c3ccccc3o2)c1N [PD98059, reference compound] | increased | greatly decrease levels of Phoshpo ERK 1 and ERK 2 | a large number of darkish pigments by induced melanosomes |  |  |  |  |  | 
CC[C@H](C)[C@H](N)C(=O)N[C@@H](Cc1c[nH]c2ccccc12)C(=O)N[C@@H](CO)C(=O)N[C@@H](CC(C)C)C(=O)N[C@@H](CC(=O)O)C(=O)N[C@H](C(=O)N[C@@H](CCC(N)=O)C(=O)N[C@@H](Cc1ccc(O)cc1)C(=O)NCC(=O)NCC(=O)N[C@@H](CCCNC(=N)N)C(=O)NCC(=O)N[C@@H](CC(=O)O)C(=O)O)[C@@H](C)O [tridecapeptide, NH2-Ile-Trp-Ser-Leu-Asp-Thr-Gln-Tyr-Gly-Gly-Arg-Gly-Asp-OH] (H-IWSLDTQYGGRGD-OH) |  |  |  | the decrease in cell number was not shown | the decrease in cell number was not shown | the decrease in cell number was not shown |  |  | 
TGF-β1: recombinant TGF-β1 (Sigma) produced by E. coli, used as control | decreased | elevated levels of Phoshpo ERK 1 and ERK 2 | significantly reduced melanosome number |  |  |  | sharply decreased with the lapse of time | relatively reduced tyrosinase activity in a dose dependent manner | 
α-MSH: melanocyte stimulating hormone/Sigma, used to induce melanin generation (Ac-SYSMEHFRWGKPV-NH2; ends and bridges not checked; UniProt P01189 138-150, looked up) [reference compound] |  |  |  |  |  |  |  | highly elevated level of tyrosinase activity | highly elevated level of melanin production
